O=C(O)c1ccc(Br)cn1
solubility (mole fraction)
Conditions | in 1,4-dioxane | in THF | in acetonitrile | in ethanol | in ethyl acetate | in isopropanol | in methanol | in methyl acetate | in n-butanol | in n-propanol
278.15 K | – | 0.0326 | 0.00178 | 0.00865 | 0.00491 | 0.0089 | 0.00787 | 0.00916 | 0.0119 | 0.0102
283.15 K | – | 0.0374 | 0.00219 | 0.0103 | 0.00583 | 0.0107 | 0.00924 | 0.0104 | 0.014 | 0.0126
288.15 K | 0.0326 | 0.0426 | 0.00266 | 0.0122 | 0.00674 | 0.0128 | 0.0107 | 0.0117 | 0.0163 | 0.0152
293.15 K | 0.0378 | 0.0478 | 0.0032 | 0.0144 | 0.00802 | 0.0152 | 0.0124 | 0.0131 | 0.0189 | 0.0182
298.15 K | 0.0435 | 0.0543 | 0.00381 | 0.0175 | 0.00937 | 0.018 | 0.0145 | 0.0147 | 0.0218 | 0.0216
303.15 K | 0.0502 | 0.0611 | 0.00449 | 0.0209 | 0.011 | 0.0213 | 0.017 | 0.0164 | 0.0249 | 0.0254
308.15 K | 0.0574 | 0.0663 | 0.00524 | 0.0241 | 0.0126 | 0.025 | 0.0196 | 0.0182 | 0.0283 | 0.0296
313.15 K | 0.0656 | 0.0742 | 0.00607 | 0.028 | 0.0144 | 0.0292 | 0.0229 | 0.0201 | 0.0319 | 0.0342
318.15 K | 0.0744 | 0.0803 | 0.00698 | 0.0323 | 0.0165 | 0.034 | 0.0271 | 0.0221 | 0.0358 | 0.0391
323.15 K | 0.0831 | 0.0886 | 0.00797 | 0.0379 | 0.0186 | 0.0394 | 0.0315 | 0.0244 | 0.0399 | 0.0445
